Consider 19 compounds from PubChem BioAssay AID256 (DTP/NCI, 2004).

The experiment deals with CD2F1 mice, L1210 leukemia ip, survival T/C. In words: NCI In Vivo Anticancer Drug Screen. Data for tumor model L1210 Leukemia (intraperitoneal) in CD2F1 (CDF1) mice. Conditions: higher = longer survival. In outline:
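In this screen, transplantable tumors were grown in mice given either the compound or its vehicle. Results were expressed as the treated measurement relative to the control measurement.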

[1] abbreviates: endpoint: mean survival time, dose: 12.5 mg/kg/injection, schedule: Q04DX003 (ip), vehicle: saline with Tween-80.
Setting [2] is: endpoint: mean survival time, dose: 50.0 mg/kg/injection, schedule: Q01DX009 (ip), vehicle: saline with Tween-80.
[3] abbreviates: endpoint: mean survival time, dose: 100.0 mg/kg/injection, schedule: Q01DX009 (ip), vehicle: saline with Tween-80.
[4] abbreviates: endpoint: mean survival time, dose: 200.0 mg/kg/injection, schedule: Q01DX009 (ip), vehicle: saline with Tween-80.
[5] abbreviates: endpoint: mean survival time, dose: 100.0 mg/kg/injection, schedule: Q04DX003 (ip), vehicle: saline with Tween-80.
Where [6] appears, read: endpoint: mean survival time, dose: 200.0 mg/kg/injection, schedule: Q04DX003 (ip), vehicle: saline with Tween-80.
Where [7] appears, read: endpoint: mean survival time, dose: 400.0 mg/kg/injection, schedule: Q01DX009 (ip), vehicle: saline with Tween-80.
Where [8] appears, read: endpoint: mean survival time, dose: 400.0 mg/kg/injection, schedule: Q04DX003 (ip), vehicle: saline with Tween-80.

Where “and” joins values, the source holds several entries; their conditions need not be identical. Identical values can stand only once. Toxic doses and inconclusive results are not listed.

Consider `O=c1[nH]cnc2nc(SCc3ccc([N+](=O)[O-])cc3)[nH]c12`, for which the T/C was 90 % of control (endpoint: mean survival time, dose: 50.0 mg/kg/injection, schedule: Q01DX009 (ip), vehicle: Klucel (hydroxypropylcellulose) (HPC)); 94 % of control (endpoint: mean survival time, dose: 100.0 mg/kg/injection, schedule: Q01DX009 (ip), vehicle: Klucel (hydroxypropylcellulose) (HPC)); 105 % of control (endpoint: mean survival time, dose: 200.0 mg/kg/injection, schedule: Q01DX009 (ip), vehicle: Klucel (hydroxypropylcellulose) (HPC)).

For `CC(O)CC1CC(=O)CCC1=O` (configuration not stated), the T/C runs as follows: (endpoint: mean survival time, dose: 100.0 mg/kg/injection, schedule: Q01DX001 (ip), vehicle: saline with Tween-80) 98 % of control; (endpoint: mean survival time, dose: 200.0 mg/kg/injection, schedule: Q01DX001 (ip), vehicle: saline with Tween-80) 103 % of control; (endpoint: mean survival time, dose: 400.0 mg/kg/injection, schedule: Q01DX001 (ip), vehicle: saline with Tween-80) 95 % of control.

Turning to `OCCNCc1ccc(OCc2ccccc2)c(OCc2ccccc2)c1`, the T/C is, setting by setting: (endpoint: median survival time, dose: 50.0 mg/kg/injection, schedule: Q04DX003 (ip), vehicle: saline with Tween-80) 90 % of control; (endpoint: median survival time, dose: 100.0 mg/kg/injection, schedule: Q04DX003 (ip), vehicle: saline with Tween-80) 90 % of control.

For the compound `CC(=O)Nc1ccn(C2OC(CO)C(O)C2O)c(=O)n1` (configuration not stated), the T/C (endpoint: mean survival time, dose: 12.5 mg/kg/injection, schedule: Q03HX024 (ip), vehicle: saline) was 196 % of control; the T/C (endpoint: mean survival time, dose: 25.0 mg/kg/injection, schedule: Q03HX024 (ip), vehicle: saline) was 274 % of control; the T/C (endpoint: mean survival time, dose: 37.5 mg/kg/injection, schedule: Q01DX008 (ip), vehicle: saline) is 150 % of control; the T/C (endpoint: mean survival time, dose: 50.0 mg/kg/injection, schedule: Q03HX024 (ip), vehicle: saline) was 257 % of control; the T/C (endpoint: mean survival time, dose: 50.0 mg/kg/injection, schedule: Q04DX003 (ip), vehicle: saline) was 113 % of control; the T/C (endpoint: mean survival time, dose: 75.0 mg/kg/injection, schedule: Q01DX008 (ip), vehicle: saline) was 160 % of control. The T/C runs as follows: (endpoint: mean survival time, dose: 100.0 mg/kg/injection, schedule: Q04DX003 (ip), vehicle: saline) 117 % of control; (endpoint: mean survival time, dose: 150.0 mg/kg/injection, schedule: Q01DX001 (ip), vehicle: saline) 106 % of control; (endpoint: mean survival time, dose: 150.0 mg/kg/injection, schedule: Q01DX008 (ip), vehicle: saline) 174 % of control; (endpoint: mean survival time, dose: 300.0 mg/kg/injection, schedule: Q01DX001 (ip), vehicle: saline) 107 % of control; (endpoint: mean survival time, dose: 600.0 mg/kg/injection, schedule: Q01DX001 (ip), vehicle: saline) 107 % of control; (endpoint: mean survival time, dose: 1200.0 mg/kg/injection, schedule: Q01DX001 (ip), vehicle: saline) 104 % of control.

On to `N=C(N)SCc1ccccc1Cl`, for which the T/C runs as follows: (endpoint: mean survival time, dose: 1.56 mg/kg/injection, schedule: Q01DX009 (ip), vehicle: saline) 101 % of control; (endpoint: mean survival time, dose: 3.13 mg/kg/injection, schedule: Q01DX009 (ip), vehicle: saline) 101 % of control; (endpoint: mean survival time, dose: 6.25 mg/kg/injection, schedule: Q01DX009 (ip), vehicle: saline) 101 % of control.

As for `C[NH-].[Cl][Pt+2][Cl].[NH-]C1CC1`, the T/C reads like this: (endpoint: mean survival time, dose: 1.56 mg/kg/injection, schedule: Q04DX003 (ip), vehicle: saline) 103 % of control; (endpoint: mean survival time, dose: 3.12 mg/kg/injection, schedule: Q04DX003 (ip), vehicle: saline with Tween-80) 113 % of control; (endpoint: mean survival time, dose: 3.12 mg/kg/injection, schedule: Q04DX003 (ip), vehicle: saline) 103 % of control; (endpoint: mean survival time, dose: 6.25 mg/kg/injection, schedule: Q04DX003 (ip), vehicle: saline) 120 % of control; under setting [1], 104 % of control.

With `Cc1cc(CC(Cl)(C(F)(F)F)C(F)(F)F)cc(CC(Cl)(C(F)(F)F)C(F)(F)F)n1`, the T/C is 97 % of control under setting [1]; 97 % of control (endpoint: mean survival time, dose: 25.0 mg/kg/injection, schedule: Q04DX003 (ip), vehicle: saline with Tween-80); 97 % of control (endpoint: mean survival time, dose: 50.0 mg/kg/injection, schedule: Q04DX003 (ip), vehicle: saline with Tween-80).

In the case of `CC1(c2ccc(Cl)cc2)OC(=O)C(=Cc2ccc([N+](=O)[O-])s2)C(=O)O1` (configuration not stated), the T/C by setting is: (endpoint: mean survival time, dose: 6.25 mg/kg/injection, schedule: Q01DX009 (ip), vehicle: saline with Tween-80) 101 % of control; (endpoint: mean survival time, dose: 12.5 mg/kg/injection, schedule: Q01DX009 (ip), vehicle: saline with Tween-80) 98 % of control and 101 % of control; (endpoint: mean survival time, dose: 25.0 mg/kg/injection, schedule: Q01DX009 (ip), vehicle: saline with Tween-80) 96 % of control and 100 % of control; under setting [2], 100 % of control and 101 % of control; under setting [3], 102 % of control and 112 % of control; under setting [4], 97 % of control.

Consider `O=C(CNC(=O)Nc1ccc(F)cc1)N/N=C/c1cc(Br)ccc1O`, for which the T/C is 100 % of control under setting [2], 96 % of control under setting [3] and 88 % of control under setting [4].

With `c1ccc2nc(N3CCCCC3)ccc2c1`, the T/C is 94 % of control (endpoint: mean survival time, dose: 25.0 mg/kg/injection, schedule: Q04DX002 (ip), vehicle: saline with Tween-80); 94 % of control (endpoint: mean survival time, dose: 50.0 mg/kg/injection, schedule: Q04DX002 (ip), vehicle: saline with Tween-80); 94 % of control (endpoint: mean survival time, dose: 100.0 mg/kg/injection, schedule: Q04DX002 (ip), vehicle: saline with Tween-80).

For `O=C1CC(=O)C(Br)=C1Br`, the T/C reads like this: (endpoint: mean survival time, dose: 0.75 mg/kg/injection, schedule: Q01DX009 (ip), vehicle: saline with Tween-80) 95 % of control; (endpoint: mean survival time, dose: 1.5 mg/kg/injection, schedule: Q01DX009 (ip), vehicle: saline with Tween-80) 95 % of control; (endpoint: mean survival time, dose: 3.0 mg/kg/injection, schedule: Q01DX009 (ip), vehicle: saline with Tween-80) 90 % of control.

Regarding `O=C(O)C1C2OC3C(OC(=O)C31)C2Br` (configuration not stated), the T/C is 96 % of control under setting [3]; 91 % of control under setting [5]; 93 % of control under setting [4]; 89 % of control under setting [6]; 91 % of control under setting [7]; 89 % of control under setting [8].

As to `COc1cccc2c1C(=O)c1c(O)c3c(c(O)c1C2=O)C[C@@](O)(C(=O)COC(C)=O)C[C@@H]3OC1CC(N)C(O)C(C)O1` (some centres not stated), the T/C by setting is: (endpoint: mean survival time, dose: 3.0 mg/kg/injection, schedule: Q01DX009 (ip), vehicle: saline) 156 % of control; (endpoint: mean survival time, dose: 3.0 mg/kg/injection, schedule: Q04DX003 (ip), vehicle: saline with Tween-80) 118 % of control.

Regarding `COc1ccc(C2=CCN(c3ccc(C)cc3)P(=O)(N(CCCl)CCCl)O2)cc1` (configuration not stated), the T/C (endpoint: mean survival time, dose: 31.25 mg/kg/injection, schedule: Q01DX001 (ip), vehicle: saline) is 100 % of control; the T/C (endpoint: mean survival time, dose: 62.5 mg/kg/injection, schedule: Q01DX001 (ip), vehicle: saline) was 100 % of control; the T/C (endpoint: mean survival time, dose: 125.0 mg/kg/injection, schedule: Q01DX001 (ip), vehicle: saline) was 97 % of control; the T/C (endpoint: mean survival time, dose: 250.0 mg/kg/injection, schedule: Q01DX001 (ip), vehicle: saline) was 102 % of control; the T/C (endpoint: mean survival time, dose: 500.0 mg/kg/injection, schedule: Q01DX001 (ip), vehicle: saline) is 91 % of control.

Turning to `N#CCCSc1ccccc1`, the T/C is 90 % of control under setting [5], 102 % of control under setting [6] and 96 % of control under setting [8].

With `C=CCCCCCCCCC(=O)NCCN1CCOCC1`, the T/C by setting is: under setting [2], 100 % of control; under setting [3], 96 % of control; under setting [4], 88 % of control.

On to `Cc1cccc(C)c1NC(=S)NNC(=O)NNC(=S)Nc1c(C)cccc1C`, for which the T/C by setting is: under setting [3], 95 % of control; under setting [4], 95 % of control; under setting [7], 105 % of control.

With `NCc1ccncc1`, the T/C runs as follows: (endpoint: mean survival time, dose: 100.0 mg/kg/injection, schedule: Q04DX002 (ip), vehicle: saline) 106 % of control; (endpoint: mean survival time, dose: 200.0 mg/kg/injection, schedule: Q04DX002 (ip), vehicle: saline) 95 % of control; (endpoint: mean survival time, dose: 400.0 mg/kg/injection, schedule: Q04DX002 (ip), vehicle: saline) 98 % of control.

As for `CCCCCCCCCC(C(=O)OCC)(C(=O)OCC)C1CCCC1`, the T/C reads like this: (endpoint: mean survival time, dose: 100.0 mg/kg/injection, schedule: Q01DX001 (ip), vehicle: saline sonified) 106 % of control; under setting [5], 100 % of control; (endpoint: mean survival time, dose: 200.0 mg/kg/injection, schedule: Q01DX001 (ip), vehicle: saline sonified) 100 % of control; under setting [6], 100 % of control; (endpoint: mean survival time, dose: 400.0 mg/kg/injection, schedule: Q01DX001 (ip), vehicle: saline sonified) 90 % of control; under setting [8], 97 % of control.
